# Data published in article PMC3085955 (Journal of medicinal chemistry, 2011).
# Tests used:
# cultured mammalian cells = details: cited from earlier work
# T. gondii YFP = assay: T. gondii replication assay in two successive infection cycles; assay type: cell-based, Toxoplasma gondii; details: exposure to less than 1 μM in the first cycle
# T. gondii RHΔhxgprt = assay type: cell-based, Toxoplasma gondii; details: for apicoplast replication: 1st infection cycle, T. gondii RHΔhxgprt
Compound,concentration showing toxicity against cultured mammalian cells (cultured mammalian cells),reduction in parasite titers by the end of the second infection cycle (T. gondii YFP),apicoplast replication (T. gondii RHΔhxgprt),ratio of plastid to nuclear DNA (T. gondii RHΔhxgprt; either infection cycle)
"CC[C@H]1OC(=O)[C@H](C)[C@@H](O[C@H]2C[C@@](C)(OC)[C@@H](O)[C@H](C)O2)[C@H](C)[C@@H](O[C@@H]2O[C@H](C)C[C@H](N(C)C)[C@H]2O)[C@](C)(O)C[C@@H](C)CN(C)[C@H](C)[C@@H](O)[C@]1(C)O [Compound 3, Azithromycin]",~100 µM,> 2 fold,significantly impaired,
"CC[C@H]1OC(=O)[C@H](C)[C@@H](O[C@H]2C[C@@](C)(OC)[C@@H](O)[C@H](C)O2)[C@H](C)[C@@H](O[C@@H]2O[C@H](C)C[C@H](N(C)C)[C@H]2O)[C@](C)(O)C[C@@H](C)CN(CCCc2ccccc2)[C@H](C)[C@@H](O)[C@]1(C)O [Compound 30, N-phenylpropyl-azithromycin]",,,significantly impaired,
"CC[C@H]1OC(=O)[C@H](C)[C@@H](O[C@H]2C[C@@](C)(OC)[C@@H](O)[C@H](C)O2)[C@H](C)[C@@H](O[C@@H]2O[C@H](C)C[C@H](N(C)C)[C@H]2O)[C@](C)(O)C[C@@H](C)CN(Cc2ccccc2)[C@H](C)[C@@H](O)[C@]1(C)O [Compound 11, N-benzyl-azithromycin]",,,significantly impaired,
CCc1nc(N)nc(N)c1-c1ccc(Cl)cc1 [Pyrimethamine],,,,did not affect
Spiramycin,,,significantly impaired,
